Measured values from patent US20250041226A1, “MULTIPARTICULATE ALBACONAZOLE COMPOSITION” (PALAU PHARMA, S.L.U., priority 2021, published 2025).

Legend:
[1] = Dissolution test (Ph. Eur. 2.9.3, paddle apparatus, 0.1 N HCl, 45 min); assay type: physicochemical; settings: HCl 0.1N, 45 minutes where stated
Protocol: • Analytical procedure: Ph. Eur. <2.9.3>; UVNis
• Paddle apparatus. • Stirring speed: 100 rpm. • Dissolution medium: 0.1 N Hydrochloric acid.
0.1 N Hydrochloric acid: using a pipette, transfer 8.5 ml of hydrochloric acid to a 1,000 ml calibrated flask and dilute to volume with water HPLC grade. • Volume of dissolution medium: 900 ml. • Dissolution time: 45 min. • Temperature of dissolution medium: 37±0.5° C.

[2] = Related substances (total impurities) by HPLC in stability experiments; assay type: physicochemical; settings: within the coating
Protocol: • Analytical procedure: Ph. Eur. <2.2.29>; HPLC
• Column: Luna C18 (2) 5 μm, 150×4.6 mm. • Mobile phase: Acetonitrile/0.5% phosphoric acid as following:
• 0.5% phosphoric acid: using a pipette, transfer 5 ml of o-phosphoric acid (85%) to a 1,000 ml calibrated flask and dilute to volume with water HPLC grade. • Flow: 1.0 ml/min. • Wavelength detection: 210 nm. • Injection volume: 20 μl. • Column temperature: 30° C. • Retention time of Albaconazole: approx. 20.0 min. • Chromatogram time: 29 min.
Test solution: Grind the content (pellets) of, at least, 5 capsules, from the obtained powder weight, accurately, about 150 mg and transfer to a 25 ml calibrated flask. Add about 20 ml of acetonitrile HPLC grade and apply the ultrasound during approximately 10 min. Allow to cool and dilute to volume with acetonitrile HPLC grade. Filter through a 0.45 μm Millex HV-PVDF filter or similar, discard the first drops of filtrate (perform in triplicate).
Individual related substances that are lower than the quantification limit (Quantification limit: QL=0.015%), and any peak corresponding to placebo have not been quantified. The compositions of the invention may be used in the treatment of fungal infections in a patient by orally administering said compositions to said patient.

| Structure (SMILES) | Dissolution behaviour (observation in words) [1] | Impurities during stability experiments (in words) [2] |
| --- | --- | --- |
| C[C@@H](n1cnc2cc(Cl)ccc2c1=O)[C@](O)(Cn1cncn1)c1ccc(F)cc1F [Albaconazole form Ill, Albaconazole] | excellent dissolution results | low impurities during stability experiments |
| C[C@@H](n1cnc2cc(Cl)ccc2c1=O)[C@](O)(Cn1cncn1)c1ccc(F)cc1F [crystalline Albaconazole, Albaconazole] | dissolves faster at early times than amorphous Albaconazole | – |
